Measured values as given in ChEMBL document CHEMBL1641589, “Phosphoramidate pronucleotides of cytostatic 6-aryl-7-deazapurine ribonucleosides” (Bioorg Med Chem, 2011).

What was measured:
HCT-116 = test: Cytotoxicity against human HCT116 cells after 5 days by SRB assay; assay type: functional; conditions: HCT-116, 120 h
[1] = Chemical stability of the compound assessed as specific activity per ug at 30 uM after 30 mins in presence of purified carboxylesterase 1; assay type: physicochemical; conditions: isolated protein, 0.5 h
[2] = Chemical stability of the compound assessed as specific activity per ug at 30 uM after 30 mins in presence of purified cathepsin A; assay type: physicochemical; conditions: 0.5 h
CCRF-CEM [3] = test: Cell cycle arrest in human CCRF-CEM cells assessed as accumulation at S phase at IC50 concentration using propidium iodide staining by flow cytometry relative to control; assay type: functional
CCRF-CEM [4] = test: Cytotoxicity against human CCRF-CEM cells after 3 days by XTT assay; assay type: functional, cell-based; conditions: 72 h
HL-60 = test: Cytotoxicity against human HL60 cells after 5 days by SRB assay; assay type: functional; conditions: HL-60, 120 h
CCRF-CEM [5] = test: Cell cycle arrest in human CCRF-CEM cells assessed as increased of cellular debris level at IC50 concentration using propidium iodide staining by flow cytometry relative to control; assay type: functional
CCRF-CEM [6] = test: Cell cycle arrest in human CCRF-CEM cells assessed as accumulation at G1 phase at IC50 concentration using propidium iodide staining by flow cytometry relative to control; assay type: functional
DU-145 = test: Cytotoxicity against human DU145 cells after 5 days by SRB assay; assay type: functional; conditions: DU-145, 120 h
[7] = Cytotoxicity against human Hs578 cells after 5 days by SRB assay; assay type: functional; conditions: Hs578, 120 h
[8] = Cytotoxicity against human HeLaS3 cells after 3 days by XTT assay; assay type: functional, cell-based; conditions: HeLa S3, 72 h
NCI-H23 = test: Cytotoxicity against human NCI-H23 cells after 5 days by SRB assay; assay type: functional; conditions: NCI-H23, 120 h
[9] = Chemical stability of the compound assessed as specific activity per ug at 30 uM after 30 mins in presence of purified carboxylesterase 2; assay type: physicochemical; conditions: isolated protein, 0.5 h
CCRF-CEM [10] = test: Cell cycle arrest in human CCRF-CEM cells assessed as accumulation at G2/M phase at IC50 concentration using propidium iodide staining by flow cytometry relative to control; assay type: functional
HepG2 = test: Cytotoxicity against human HepG2 cells after 3 days by XTT assay; assay type: functional, cell-based; conditions: HepG2, 72 h
[11] = Permeability from apical to basolateral side of human Caco2 cells at 10 uM after 60 to 120 mins by HPLC analysis; assay type: ADME, cell-based; conditions: Caco-2
[12] = Permeability from apical to basolateral side at 10 uM after 60 to 120 mins by HPLC analysis; assay type: ADME; conditions: not told
[13] = Efflux ratio of permeability from basolateral to apical side over apical to basolateral side in human Caco2 cells at 10 uM after 60 to 120 mins by HPLC analysis; assay type: ADME, cell-based; conditions: Caco-2
[14] = Permeability from basolateral to apical side of human Caco2 cells at 10 uM after 60 to 120 mins by HPLC analysis; assay type: ADME, cell-based; conditions: Caco-2

Stability [1] | Stability [2] | Stability [9] | Papp A→B at 10 µM [11] | Papp A→B at 10 µM [12] | efflux ratio at 10 µM [13] | Papp B→A at 10 µM [14] | Structure (SMILES) | GI50 (HCT-116) | Activity (CCRF-CEM [3]) | IC50 (CCRF-CEM [4]) | GI50 (HL-60) | Activity (CCRF-CEM [5]) | Activity (CCRF-CEM [6]) | GI50 (DU-145) | GI50 [7] | IC50 [8] | GI50 (NCI-H23) | Activity (CCRF-CEM [10]) | IC50 (HepG2)
149 pmol/min | 11989 pmol/min | 0 pmol/min |  |  |  |  | CCOC(=O)[C@H](C)NP(=O)(OC[C@H]1O[C@@H](n2ccc3c(-c4ccco4)ncnc32)[C@H](O)[C@@H]1O)Oc1ccccc1 (some centres undefined) | 2.5 µM | 55.3% | 3.34 µM | 4.86 µM | 42.5% | 26.6% | 2.29 µM | 2.18 µM | 1.02 µM | 2.87 µM | 18.06% | 1.42 µM
 |  |  |  |  |  |  | OC[C@H]1O[C@@H](n2ccc3c(-c4ccsc4)ncnc32)[C@H](O)[C@@H]1O |  |  |  | > 40 µM |  |  |  |  |  |  |  | 3.22 µM
 |  |  |  |  |  |  | CCOC(=O)[C@H](C)NP(=O)(OC[C@H]1O[C@@H](n2ccc3c(-c4ccoc4)ncnc32)[C@H](O)[C@@H]1O)Oc1ccccc1 (some centres undefined) | 9.06 µM |  | > 10 µM | > 10 µM |  |  | 9.05 µM | 5.97 µM | 4.89 µM | 8.28 µM |  | 2.96 µM
 |  |  |  |  |  |  | C[C@H](NP(=O)(OC[C@H]1O[C@@H](n2ccc3c(-c4cccc5c4oc4ccccc45)ncnc32)[C@H](O)[C@@H]1O)Oc1ccccc1)C(=O)OCc1ccccc1 (some centres undefined) | > 10 µM |  | > 10 µM | > 10 µM |  |  |  | > 10 µM | > 10 µM |  |  | > 10 µM
 |  |  |  |  |  |  | C[C@H](NP(=O)(OC[C@H]1O[C@@H](n2ccc3c(-c4ccccc4)ncnc32)[C@H](O)[C@@H]1O)Oc1ccccc1)C(=O)OCc1ccccc1 (some centres undefined) | > 10 µM |  | > 10 µM | 5.65 µM |  |  |  | > 10 µM | > 10 µM |  |  | > 10 µM
 |  |  |  |  |  |  | COC(=O)[C@H](C)NP(=O)(OC[C@H]1O[C@@H](n2ccc3c(-c4ccccc4)ncnc32)[C@H](O)[C@@H]1O)Oc1ccccc1 (some centres undefined) | > 10 µM |  | > 10 µM | > 10 µM |  |  | > 10 µM | > 10 µM | > 10 µM | > 10 µM |  | > 10 µM
 |  |  |  |  |  |  | C[C@H](NP(=O)(OC[C@H]1O[C@@H](n2ccc3c(-c4ccoc4)ncnc32)[C@H](O)[C@@H]1O)Oc1ccccc1)C(=O)OCc1ccccc1 (some centres undefined) | 1.42 µM | 54% | 3.11 µM | > 10 µM | 21.5% | 37.5% | 1.09 µM | 1.1 µM | 1.31 µM | 5.19 µM | 8.4% | 2.01 µM
 |  |  | 1.1 ×10⁻⁶ cm/s | 29.9 ×10⁻⁶ cm/s | 12 | 13.2 ×10⁻⁶ cm/s | C[C@H](NP(=O)(OC[C@H]1O[C@@H](n2ccc3c(-c4cccs4)ncnc32)[C@H](O)[C@@H]1O)Oc1ccccc1)C(=O)OCc1ccccc1 (some centres undefined) | 0.68 µM | 57.9% | 2.09 µM |  | 49.5% | 30.7% | 0.989 µM | 1.42 µM | 1.56 µM | 5.12 µM | 11.5% | 0.88 µM
 |  |  |  |  |  |  | CCOC(=O)[C@H](C)NP(=O)(OC[C@H]1O[C@@H](n2ccc3c(-c4ccccc4)ncnc32)[C@H](O)[C@@H]1O)Oc1ccccc1 (some centres undefined) | > 10 µM |  | > 10 µM | > 10 µM |  |  |  | > 10 µM | > 10 µM |  |  | > 10 µM
 |  |  | 1.57 ×10⁻⁶ cm/s | 34.1 ×10⁻⁶ cm/s | 5.9 | 9.31 ×10⁻⁶ cm/s | OC[C@H]1O[C@@H](n2ccc3c(-c4cccs4)ncnc32)[C@H](O)[C@@H]1O |  |  | 8.8 µM | 1.2 µM |  |  |  |  | 0.29 µM |  |  | 1.19 µM
 |  |  |  |  |  |  | CCOC(=O)[C@H](C)NP(=O)(OC[C@H]1O[C@@H](n2ccc3c(-c4cccc5c4oc4ccccc45)ncnc32)[C@H](O)[C@@H]1O)Oc1ccccc1 (some centres undefined) | > 10 µM |  | > 10 µM | > 10 µM |  |  |  | > 10 µM | > 10 µM |  |  | > 10 µM
 |  |  | 0.74 ×10⁻⁶ cm/s | 35.1 ×10⁻⁶ cm/s | 13.3 | 9.75 ×10⁻⁶ cm/s | COC(=O)[C@H](C)NP(=O)(OC[C@H]1O[C@@H](n2ccc3c(-c4cccs4)ncnc32)[C@H](O)[C@@H]1O)Oc1ccccc1 (some centres undefined) | 6.22 µM |  | 8.47 µM | > 10 µM |  |  | 3.23 µM | 6.59 µM | 2.51 µM | 6.79 µM |  | 1.41 µM
